These results are taken from patent publication EP0461869A2, “Chemotherapeutic agents” (MERCK & CO. INC., priority 1990, dated 1991).

Bounds are passed on as bounds.

Assay [1] addresses T1, Farnesyl-protein transferase from bovine brain (partially purified enzyme preparation) (Bos taurus, UniProt P29702+P49355).
T1 construct: the indicated compounds were incubated with this partially purified enzyme preparation; from tissue; host or cells: bovine brain; chromatographed on DEAE-Sephacel and N-octyl agarose
Description: Competition of Ras farnesylation by polyisoprenoids and peptides (Hepes-buffered assay, immunoprecipitation and nitrocellulose filtration). Type of assay: biochemical. The settings on record: for IC50: [Leu68]RAS1(term.)CVLS at 1 µM, 0.5 µM [3H]FPP, 10 min at 24° C, average of 2-5 determinations, >> = no competition at the highest concentration tested; for competition of the farnesylation reaction (in words): 0.5 µM [3H]FPP and 1 µM Ras.
Description: Enzyme reactions were analyzed by SDS-PAGE (sodium dodecyl sulfate/polyacrylamide gel electrophoresis) or immunoprecipitation. For gel analysis, each labeling reaction was boiled for 3 min in buffer containing 1% SDS/100 mM Tris-Cl, pH 6.8/10% glycerol/1% 2-mercaptoethanol, and loaded directly on 13.7% polyacrylamide gels. Radiolabeled Ras was visualized by autoradiography after fluorographic enhancement with Enlightning (New England Nuclear). For immunoprecipitation of radiolabelled Ras, reactions were first extracted with Triton X-114 using a modification of the procedure of Bordier (J. Biol. Chem. 256:1604-1607(1981). An aliquot (150 µl) of 1% Triton X-114 (Pierce) was added to the 50 µl reaction mix to achieve a final Triton X-114 concentration of 0.75%. Following 10 min. on ice, the tubes were transfered to a 37°C bath for 3 min. The cloudy solution was then centrifuged at 10,000 x g for 5 min. at room temperature. The upper aqueous phase was removed, and the detergent phase was diluted by the addition of 150 µl cold phosphate-buffed saline plus 150 µl of Ras monoclonal antibody Y13-259 coupled to Sepharose-protein A beads (Gutierrez et al. EMBO J. 8:1093-1098(1989) and Hancock et al. Cell 57:1167-1177(1989).
Farnesyl-protein transferase from bovine brain was chromatographed on DEAE-Sephacel (Pharmacia, 0-0.8 M NaCl gradient elution) and N-octyl agarose (Sigma, 0-0.6 M NaCl gradient elution). […] Reactions were analyzed by immunoprecipitation without the Triton X-114 extraction step followed by Nitrocellulose filtration.

Assay [2] has as its target bovine brain farnesylprotein transferase activity (Bos taurus, UniProt P29702+P49355). Description: Apparent Km estimation for farnesylation of Ras, varying [14C]FPP and [Leu61]Ha Ras concentration. Type of assay: biochemical. The settings on record: [14C]FPP varied 0.03-30 µM, [Leu61]Ha Ras varied 0.03-250 µM; estimated. As for the experimental part:
Polyisoprenylation of Ras⁻ [³H]mevalonic acid (35 Ci/mmol) and [³H]farnesyl-PPi(FPP) FPP (20 Ci/mmol) were purchased from New England Nuclear. [¹⁴C]FPP (49.7 mCi/mmol) was prepared enzymatically from partially purified prenyl transferase, [4-¹⁴C]isopentyl-PPi (47.9 mCi/mmol, Amersham), and geranyl-PPi. Reactions contained 280 pmol (10 µCi) of [³H]mevalonic acid, 500 pmol (0.025 µCi) of [¹⁴C]FPP or 25 pmol (0.5 µci) of [³H]FPP. In a standard 50 µl reaction, 250 pmol of Ras purified from E. coli (Gibbs et al. Proc. Natl. Acad. Sci. USA 86:6630-6634(1989)) was added to 35 µl of rabbit reticulocyte lysate (Promega, L4210) or a tissue extract (100,00 x g supernatant, 10 mg/ml). Buffer conditions were adjusted by the addition of one-tenth volume of 500 mM Tris-Cl, pH 8.0/50 mM MgCl₂ or one-tenth volume of 500 mM NaHepes, pH 7.5/50 mM MgCl₂/50mM dithiothreitol. In the Tris-buffered assay, the reactions were incubated for 1 hour at 24°C. Reaction velocities in the Hepes buffered assays were at least four times greater, and incubations were for 10 minutes at 24°C. Tissue extracts were prepared as described previously [(ethylenebis(oxyethylenenitrilo)]tetra-acetic acid in buffer containing 50 mM Tris-Cl, pH 8.0/1 mM EGTA/1 mM MgCl₂/1 mM dithiothreitol/10 µl/ml aprotinin/0.5 mM phenylmethlysulfonyl fluoride. […]

One may read the IC50 as the midpoint of a concentration-inhibition curve. Read a low IC50 as greater potency. In assay [1], “Cys-Val-Leu-Ser (CVLS; printed: Cys-Val-Leu-Ser)” showed an IC50 of 2.2 µM.

`CC(C)=CCC/C(C)=C/COP(=O)(O)OP(=O)(O)O` [Geranyl-PPi] returned a 50% inhibitory concentration (IC50) in assay [1] of 67 µM.

With `CC(C)=CCCC(C)=CCCC(C)=CCO` [Farnesol], in assay [1], the “competition of the farnesylation reaction (in words)” value (“competition” for short) was “inactive” and the IC50 was over 100 µM.

In the case of `CC(C)=CCOP(=O)(O)OP(=O)(O)O` [Dimethylallyl-PPi], in assay [1], the IC50 turned out to be 325 µM.

With S-(trans, trans) farnesyl-CVIM, the IC50 in assay [1] turned out to be 1.4 µM.

On to S-(trans, trans) farnesyl-CVLS, for which the IC50 in assay [1] amounted to 28 µM.

With `CC(C)=CCC/C(C)=C/CC/C(C)=C/CC/C(C)=C/CO` [Geranylgeraniol], in assay [1], the “competition” value is “inactive” and the IC50 was over 100 µM.

The term Km denotes the concentration of substrate that gives half-maximal velocity. In the case of `CC(C)=CCC/C(C)=C/CC/C(C)=C/COP(=O)(O)OP(=O)(O)O` [Farnesyl-PPi], the Km in assay [2] was 0.3 µM. In addition, in assay [1], the “competition” value is “potently inhibited” and the IC50 was 0.7 µM.

With `CC(C)=CCC/C(C)=C/CC/C(C)=C/CC/C(C)=C/COP(=O)(O)OP(=O)(O)O` [Geranylgeranyl-PPi], in assay [1], the “competition” value is given as “potently inhibited” and the IC50 is 1.4 µM.
